# pIC50: −log10 of the molar value.
# Biological target: human NaV subtype, like NaV 1.7 (Homo sapiens, UniProt Q15858)
# Experiment: E-VIPR optical membrane potential assay with electrical stimulation
# Type: cell-based
# Conditions: active against one or more sodium channels; Table 3 does not name the assay or NaV subtype; read-out: Binned Activity Data (IC50)
# human NaV subtype, like NaV 1.7, sequence (Q15858 whole entry): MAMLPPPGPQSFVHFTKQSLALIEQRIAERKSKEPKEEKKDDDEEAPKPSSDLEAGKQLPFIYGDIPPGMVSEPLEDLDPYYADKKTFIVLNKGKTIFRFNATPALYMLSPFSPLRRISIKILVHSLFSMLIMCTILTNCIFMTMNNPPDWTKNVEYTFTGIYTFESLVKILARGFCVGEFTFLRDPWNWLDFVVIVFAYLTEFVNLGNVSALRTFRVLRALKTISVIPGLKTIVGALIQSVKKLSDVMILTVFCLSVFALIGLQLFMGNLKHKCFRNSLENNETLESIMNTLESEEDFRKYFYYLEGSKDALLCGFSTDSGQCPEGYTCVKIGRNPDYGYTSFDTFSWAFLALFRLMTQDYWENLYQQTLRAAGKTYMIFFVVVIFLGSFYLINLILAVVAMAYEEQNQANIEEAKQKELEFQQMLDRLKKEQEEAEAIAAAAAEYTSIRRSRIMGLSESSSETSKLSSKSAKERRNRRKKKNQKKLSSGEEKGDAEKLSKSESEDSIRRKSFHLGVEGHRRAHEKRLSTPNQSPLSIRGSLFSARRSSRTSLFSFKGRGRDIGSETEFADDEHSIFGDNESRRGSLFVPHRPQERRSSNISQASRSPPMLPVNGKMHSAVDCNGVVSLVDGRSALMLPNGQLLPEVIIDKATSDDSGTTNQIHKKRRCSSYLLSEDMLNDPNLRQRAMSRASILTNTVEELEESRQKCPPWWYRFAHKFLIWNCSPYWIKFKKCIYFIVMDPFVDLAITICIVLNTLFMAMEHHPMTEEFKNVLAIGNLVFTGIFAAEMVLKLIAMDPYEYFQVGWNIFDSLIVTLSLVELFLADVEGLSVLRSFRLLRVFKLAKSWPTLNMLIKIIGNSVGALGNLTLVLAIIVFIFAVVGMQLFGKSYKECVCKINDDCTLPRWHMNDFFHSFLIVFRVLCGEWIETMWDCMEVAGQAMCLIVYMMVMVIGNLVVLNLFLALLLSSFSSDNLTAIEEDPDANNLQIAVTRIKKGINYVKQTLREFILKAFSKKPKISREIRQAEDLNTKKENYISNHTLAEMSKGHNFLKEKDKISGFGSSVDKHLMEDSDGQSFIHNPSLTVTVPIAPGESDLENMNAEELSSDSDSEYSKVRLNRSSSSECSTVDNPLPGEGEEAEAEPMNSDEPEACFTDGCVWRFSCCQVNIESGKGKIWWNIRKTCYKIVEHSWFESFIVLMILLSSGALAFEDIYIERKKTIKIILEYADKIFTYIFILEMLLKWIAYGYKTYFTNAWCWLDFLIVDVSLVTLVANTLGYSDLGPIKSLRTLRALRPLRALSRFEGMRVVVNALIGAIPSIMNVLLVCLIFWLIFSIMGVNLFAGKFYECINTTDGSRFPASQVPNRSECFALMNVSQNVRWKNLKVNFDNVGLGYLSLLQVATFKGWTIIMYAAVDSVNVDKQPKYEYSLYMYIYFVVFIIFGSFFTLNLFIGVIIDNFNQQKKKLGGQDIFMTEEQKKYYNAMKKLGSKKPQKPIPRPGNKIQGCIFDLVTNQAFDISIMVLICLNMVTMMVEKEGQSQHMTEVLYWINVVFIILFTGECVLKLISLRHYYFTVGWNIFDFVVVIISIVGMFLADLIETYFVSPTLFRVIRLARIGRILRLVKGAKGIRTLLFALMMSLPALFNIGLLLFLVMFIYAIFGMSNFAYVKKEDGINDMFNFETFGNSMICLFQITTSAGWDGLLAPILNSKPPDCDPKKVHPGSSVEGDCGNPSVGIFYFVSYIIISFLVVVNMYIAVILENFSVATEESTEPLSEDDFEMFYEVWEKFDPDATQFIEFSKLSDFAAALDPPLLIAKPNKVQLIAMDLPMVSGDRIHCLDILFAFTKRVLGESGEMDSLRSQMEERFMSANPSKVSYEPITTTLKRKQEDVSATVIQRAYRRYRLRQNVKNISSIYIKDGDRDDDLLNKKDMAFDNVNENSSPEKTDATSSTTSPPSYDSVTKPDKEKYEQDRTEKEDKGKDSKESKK
row,SMILES,pIC50
1,CCC(C)(C)c1ccc(C(=O)N2CCC3(CC2)NC(C)(C)Cn2c(C(=O)C(F)(F)F)ccc23)cc1 [Compound 408],≥ 5.70
2,COc1ccc(C(=O)N2CCC3(CC2)c2ccc(C(=O)C4(C)CC4)n2CCN3C)cc1Cl [Compound 493],≥ 5.70
3,CC(C)c1ccc(C(=O)N2CCC3(CC2)c2ccc(C(=O)C(F)(F)F)n2CCN3C)cc1S(C)(=O)=O [Compound 154],5.30 to 5.70
4,CCCc1ccc(C(=O)N2CCC3(CC2)c2ccc(Cl)n2CCN3C)cc1 [Compound 224],< 5.30
5,COc1ccc(C(=O)N2CCC3(CC2)c2c(Cl)cc(C(F)(F)F)n2CCN3C)cc1C [Compound 713],5.30 to 5.70
6,Cc1cc(C(=O)N2CCC3(CC2)c2ccc(C(F)(F)F)n2CCN3C(=O)N(C)C)ccc1OC(C)C [Compound 138],≥ 5.70
7,CN1CCn2c(C(=O)C(F)(F)F)ccc2C12CCN(C(=O)c1ccc(OS(=O)(=O)C(F)(F)F)cc1)CC2 [Compound 517],≥ 5.70
8,Cc1cc(C(=O)N2CCC3(CC2)NCC(C)n2c(C(=O)C(F)(F)F)ccc23)ccc1OC(C)C (centres unmarked) [Compound 524],≥ 5.70
9,CN1CCn2c(Cl)ccc2C12CCN(C(=O)c1ccc(Cc3ccccc3)cc1)CC2 [Compound 334],< 5.30
10,CN1CCn2c(ccc2C(F)(F)C(F)(F)F)C12CCN(C(=O)c1ccc(C(C)(C)O)cc1)CC2 [Compound 743],≥ 5.70
11,CN1CCn2c(C(F)(F)F)cc(Cl)c2C12CCN(C(=O)c1ccc(COCCC(F)(F)F)cc1)CC2 [Compound 102],≥ 5.70
12,CC1Cn2c(C(F)(F)F)ccc2C2(CCN(C(=O)c3ccc(OC(C)C)cc3F)CC2)N1 (centres unmarked) [Compound 427],≥ 5.70
13,CN1CCn2c(C(F)(F)F)ccc2[C@]12CCN(C(=O)c1ccc(S(=O)(=O)NC3CC3)cc1)C[C@H]2F [Compound 244],≥ 5.70
14,COC(=O)C1CN(C)C2(CCN(C(=O)c3ccc(OC(C)C)c(OC)c3)CC2)c2ccc(C(F)(F)F)n21 (centres unmarked) [Compound 458],5.30 to 5.70
15,COc1cc(C(=O)N2CCC3(CC2)NC(C)(C)Cn2c(C(=O)C(F)(F)F)ccc23)ccc1C(C)(C)C [Compound 705],≥ 5.70
16,CC(=O)c1ccc2n1CCN(C)C21CCN(C(=O)c2ccc(C(C)(C)C)cc2)CC1 [Compound 473],< 5.30

row,SMILES,pIC50
1,CC(C)CCOc1ccc(C(=O)N2CCC3(CC2)c2ccc(C(=O)C(F)(F)F)n2C(C)CN3C)nc1 (centres unmarked) [Compound 444],≥ 5.70
2,CCCN(CCC)S(=O)(=O)c1ccc(C(=O)N2CCC3(CC2)c2ccc(Cl)n2CCN3C)cc1 [Compound 479],5.30 to 5.70
3,COc1cc(C(=O)N2CCC3(CC2)c2ccc(C(=O)C(C)C)n2CCN3C)ccc1OC(C)C [Compound 144],≥ 5.70
4,CC(C)Oc1ccc(C(=O)N2CCC3(CC2)c2ccc(C(=O)C4CC4)n2CCN3C)cc1Cl [Compound 639],≥ 5.70
5,O=C(c1ccccc1Oc1ccccc1)N1CCC2(CC1)NCCn1c(C(F)(F)F)ccc12 [Compound 43],< 5.30
6,CN1CCn2c(C(=O)C3(C)CC3)ccc2C12CCN(C(=O)c1ccc(C(C)(C)O)cc1)CC2 [Compound 267],5.30 to 5.70
7,COc1ccc(C(=O)N2CCC3(CC2)NCC(C)n2c(C(=O)C(F)(F)F)ccc23)nc1C (centres unmarked) [Compound 503],≥ 5.70
8,CCCCOc1ccc(C(=O)N2CCC3(CC2)c2ccc(C(C)=O)n2CCN3C)cc1 [Compound 34],≥ 5.70
9,COCCOc1ccc(C(=O)N2CCC3(CC2)c2c(F)cc(C(F)(F)F)n2CCN3C)cc1OC [Compound 187],≥ 5.70
10,CCn1cnc(-c2ccc(C(=O)N3CCC4(CC3)c3ccc(C(=O)C(F)(F)F)n3CCN4C)cc2C)c1 [Compound 489],≥ 5.70
11,COc1cc(C(=O)N2CCC3(CC2)c2ccc(C(F)(F)C(F)(F)F)n2CCN3C)ccc1OC(C)C [Compound 722],≥ 5.70
12,COc1cc(C(=O)N2CCC3(CC2)NCCn2c(C(F)(F)F)ccc23)ccc1C(C)(C)CO [Compound 133],≥ 5.70
13,O=C(c1ccc(S(=O)(=O)NC2CC2)cc1)N1CCC2(CC1)NCCn1c(C(F)(F)F)ccc12 [Compound 569],≥ 5.70
14,COc1nc(C(=O)N2CCC3(CC2)c2ccc(C(=O)C(F)(F)F)n2CCN3C)ccc1OC(C)C [Compound 357],≥ 5.70
15,Cc1cc(C(=O)N2CCC3(CC2)c2ccc(C(=O)C(F)(F)F)n2CCN3C)ccc1S(=O)(=O)C(C)C [Compound 508],≥ 5.70
16,Cc1nc(C(=O)N2CCC3(CC2)c2ccc(C(=O)C(F)(F)F)n2CCN3C)ccc1OC(C)C [Compound 468],≥ 5.70

# Continued, values first:
row,pIC50,SMILES
1,≥ 5.70,CN1CCn2c(C(=O)C(F)(F)F)ccc2C12CCN(C(=O)c1ccc(O)c(C(F)(F)F)c1)CC2 [Compound 733]
2,≥ 5.70,CC(C)c1cc(C(=O)N2CCC3(CC2)c2ccc(C(=O)C(F)(F)F)n2CCN3C)ccc1O [Compound 50]
3,< 5.30,COc1ncc(F)cc1C(=O)N1CCC2(CC1)c1ccc(C(F)(F)F)n1CCN2C [Compound 605]
4,≥ 5.70,CC(C)CS(=O)(=O)c1ccc(C(=O)N2CCC3(CC2)c2ccc(C(F)(F)F)n2CCN3C)cc1 [Compound 486]
5,5.30 to 5.70,COc1ccc(C(=O)N2CCC3(CC2)c2ccc(Cl)n2CCN3C)cc1C(F)(F)F [Compound 624]
6,≥ 5.70,CC[C@@H](C)Oc1ccc(C(=O)N2CCC3(CC2)c2c(F)cc(C(F)(F)F)n2CCN3C)cc1OC [Compound 513]
7,5.30 to 5.70,CC(=O)c1ccc2n1CCN(C)C21CCN(C(=O)c2ccc(C(C)(C)O)c(C)c2)CC1 [Compound 456]
8,< 5.30,CN1CCn2c(Cl)ccc2C12CCN(C(=O)c1ccc(N3CCCCC3)cc1)CC2 [Compound 195]
9,≥ 5.70,COc1c(F)cccc1C(=O)N1CCC2(CC1)c1ccc(C(=O)C(F)(F)F)n1C[C@H](C)N2C [Compound 264]
10,5.30 to 5.70,Cc1cc(C(=O)N2CCC3(CC2)c2ccc(C(=O)C(F)(F)F)n2CCN3C)ccc1-c1cnn(C)c1 [Compound 383]
11,≥ 5.70,Cc1cc(C(=O)N2CCC3(CC2)c2ccc(C(=O)C(C)(C)C)n2CCN3C)ccc1O [Compound 601]
12,≥ 5.70,Cc1cc(C(=O)N2CCC3(CC2)c2ccc(C(F)(F)F)n2CCN3C)ccc1C1COC1 [Compound 658]
13,5.30 to 5.70,CN1CCn2c(Cl)ccc2C12CCN(C(=O)c1ccc(OCC3CC3)cc1)CC2 [Compound 147]
14,< 5.30,CN1CCn2c(C(F)(F)F)ccc2C12CCN(C(=O)c1ccccc1-c1ccccc1)CC2 [Compound 393]
15,≥ 5.70,CCCCOc1ccc(C(=O)N2CCC3(CC2)c2ccc(C(F)(F)F)n2CCN3C)cc1OC [Compound 203]
16,≥ 5.70,CCNS(=O)(=O)c1ccc(C(=O)N2CCC3(CC2)c2ccc(C(F)(F)F)n2CCN3C)cc1C [Compound 343]
17,≥ 5.70,CN1CCn2c(C(F)(F)F)ccc2C12CCN(C(=O)c1cccnc1N1CCCC1)CC2 [Compound 305]
18,≥ 5.70,CN1CCn2c(C(F)(F)F)cc(F)c2C12CCN(C(=O)c1ccc(S(=O)(=O)NC3CC3)cc1)CC2 [Compound 666]
19,< 5.30,CC(=O)c1ccc2n1CCN(C)C21CCN(C(=O)c2ccc(S(=O)(=O)C(F)F)cc2)CC1 [Compound 268]
20,< 5.30,CC1(C)CNC2(CCN(C(=O)c3ccc(S(=O)(=O)NC4CC4)cc3)CC2)c2ccc(C(F)(F)F)n21 [Compound 76]
21,≥ 5.70,COc1ccc(C(=O)N2CCC3(CC2)c2ccc(C(=O)C(F)(F)F)n2C[C@H](C)N3C)nc1C [Compound 485]

row,pIC50,SMILES
1,≥ 5.70,COc1cc(C(=O)N2CCC3(CC2)c2ccc(C(F)(F)F)n2CCN3CC(F)F)ccc1OC(C)C [Compound 706]
2,≥ 5.70,C[C@H]1Cn2c(C(=O)C(F)(F)F)ccc2C2(CCN(C(=O)c3ccc(COCCC(F)(F)F)cc3)CC2)N1C [Compound 449]
3,≥ 5.70,COc1ccc(C(=O)N2CCC3(CC2)c2ccc(C(=O)C(F)(F)F)n2CCN3C)cc1C [Compound 663]
4,≥ 5.70,CC(=O)c1ccc2n1CCN(C)C21CCN(C(=O)c2ccc(OC(C)C)c(C(F)(F)F)c2)CC1 [Compound 732]
5,≥ 5.70,CN1CCn2c(C(F)(F)F)ccc2C12CCN(C(=O)c1ccc(S(=O)(=O)C3CC3)cc1)CC2 [Compound 257]
6,< 5.30,CCCOc1ccc(C(=O)N2CCC3(CC2)c2ccc(C(C)=O)n2CCN3C)cc1 [Compound 507]
7,≥ 5.70,CC(=O)c1ccc2n1C(C)(C)CN(C)C21CCN(C(=O)c2ccc(OC(C)C)c(C)c2)CC1 [Compound 174]
8,≥ 5.70,CNS(=O)(=O)c1ccc(C(=O)N2CCC3(CC2)c2ccc(C(F)(F)C(F)(F)F)n2CCN3C)cc1 [Compound 381]
9,≥ 5.70,CN1CCn2c(C(=O)C(F)(F)F)ccc2C12CCN(C(=O)c1ccc(C(CO)OCC(F)(F)F)cc1)CC2 (centres unmarked) [Compound 136]
10,5.30 to 5.70,CC(C)Nc1ncccc1C(=O)N1CCC2(CC1)c1ccc(C(F)(F)F)n1CCN2C [Compound 718]
11,≥ 5.70,COc1c(C)cccc1C(=O)N1CCC2(CC1)c1ccc(C(=O)C(F)(F)F)n1C[C@H](C)N2C [Compound 675]
12,≥ 5.70,CC1(C)Cn2c(C(=O)C(F)(F)F)ccc2C2(CCN(C(=O)c3ccc(C(C)(C)O)c(F)c3)CC2)N1 [Compound 254]
13,≥ 5.70,CC(C)Cc1ccc(C(=O)N2CCC3(CC2)c2ccc(C(=O)C(F)(F)F)n2CCN3C)cc1 [Compound 339]
14,5.30 to 5.70,CNS(=O)(=O)c1ccc(C(=O)N2CCC3(CC2)NCCn2c(C(F)(F)F)ccc23)cc1C [Compound 283]
15,≥ 5.70,Cc1cc(C(=O)N2CCC3(CC2)c2ccc(C(=O)C(F)(F)F)n2C(C)CN3C)ccc1OC(C)C (centres unmarked) [Compound 355]
16,≥ 5.70,CCN1CCn2c(C(F)(F)F)ccc2C12CCN(C(=O)c1ccc(OC(C)C)c(OC)c1)CC2 [Compound 167]
17,≥ 5.70,COc1ccc(C(=O)N2CCC3(CC2)c2ccc(C(=O)C(C)(C)C)n2CCN3C)cc1Cl [Compound 58]
18,≥ 5.70,COc1cc(C(=O)N2CCC3(CC2)c2ccc(C(=O)C(F)(F)F)n2CCN3C)ccc1OC(C)C [Compound 315]
19,< 5.30,O=C(c1ccc(Oc2ccccc2)cc1)N1CCC2(CC1)NCCn1c(C(F)(F)F)ccc12 [Compound 374]
20,5.30 to 5.70,CCNS(=O)(=O)c1ccc(C(=O)N2CCC3(CC2)c2ccc(Cl)n2CCN3C)cc1 [Compound 24]
21,≥ 5.70,CN1CCn2c(C(F)(F)F)cc(Cl)c2C12CCN(C(=O)c1ccc(CC(C)(C)O)c(F)c1)CC2 [Compound 401]

# Source: patent publication US8916565B2, “Pyrrolopyrazine-spirocyclic piperidine amides as modulators of ion channels” (priority 2011, dated 2014)
